Assay results published in BindingDB's records for doi:10.7270/Q2N014XN (Srmlsc, 2007).
Counter-ions that a name gives are not always drawn.

Target: T1, Diphosphomevalonate decarboxylase (Streptococcus pneumoniae serotype 2 (strain D39 / NCTC 7466), UniProt A0A0H2ZN59)
T1 sequence (A0A0H2ZN59 whole entry): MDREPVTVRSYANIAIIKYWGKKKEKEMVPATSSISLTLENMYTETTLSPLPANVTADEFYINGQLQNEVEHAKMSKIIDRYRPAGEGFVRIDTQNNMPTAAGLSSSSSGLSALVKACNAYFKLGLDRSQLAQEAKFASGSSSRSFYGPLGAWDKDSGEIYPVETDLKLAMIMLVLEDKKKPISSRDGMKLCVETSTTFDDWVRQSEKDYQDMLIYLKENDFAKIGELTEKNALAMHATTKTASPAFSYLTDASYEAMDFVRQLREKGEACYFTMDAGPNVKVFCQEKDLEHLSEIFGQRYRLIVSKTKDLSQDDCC
Assay: S. pneumoniae DPM-DC inhibitor potency, dose response, biochemical, PK/LDH-coupled NADH fluorescence, hexokinase coupling counter-screen (AID 550)

[1] = inactive by the depositor's call

## COc1ccc(-c2cc(C(F)(F)F)nc(SCCC(=O)Nc3cc(C)on3)n2)cc1 [3-[4-(4-Methoxy-phenyl)-6-trifluoromethyl-pyrimidin-2-ylsulfanyl]-N-(5-methyl-isoxazol-3-yl)-propionamide]
  IC50: > 10000 µM

## Cc1ccsc1C1C(C(=O)O)c2ccccc2C(=O)N1C (stereo not drawn) [1-keto-2-methyl-3-(3-methyl-2-thienyl)-3,4-dihydroisoquinoline-4-carboxylic acid]
  IC50: > 10000 µM

## C/C=C/Cn1c(N(C)Cc2ccccc2)nc2c1c(=O)[nH]c(=O)n2C [8-[benzyl(methyl)amino]-7-[(E)-but-2-enyl]-3-methylpurine-2,6-dione]
  IC50: > 10000 µM

## COC(=O)Cn1c(=NC(=O)CSC(C)=O)sc2ccccc21 [2-[2-[2-(acetylthio)-1-oxoethyl]imino-1,3-benzothiazol-3-yl]acetic acid methyl ester]
  IC50: > 10000 µM

## Cc1noc(C)c1CSc1nc2ccccc2s1 [4-(1,3-benzothiazol-2-ylsulfanylmethyl)-3,5-dimethyl-1,2-oxazole]
  IC50: > 10000 µM

## N#Cc1c(S)nc2c(c1-c1cccnc1)CCCC2 [SMR000104204]
  IC50: 20.1 µM

## CCOC(=O)c1sc2nc(SCC(=O)NCc3ccco3)n(Cc3ccccc3)c(=O)c2c1C [2-[[2-(2-furanylmethylamino)-2-oxoethyl]thio]-5-methyl-4-oxo-3-(phenylmethyl)-6-thieno[2,3-d]pyrimidinecarboxylic acid ethyl ester]
  IC50: 84.7 µM

## Sc1nnc(-c2ccccc2)n1C1C=CCCC1 (stereo not drawn) [MLS000111390]
  IC50: > 10000 µM

## Cc1cc(C)c2c(=O)n(CC(=O)NCCCN3CCN(c4ccccc4F)CC3)sc2n1 [2-(4,6-dimethyl-3-oxidanylidene-[1,2]thiazolo[5,4-b]pyridin-2-yl)-N-[3-[4-(2-fluorophenyl)piperazin-1-yl]propyl]ethanamide]
[1]
  IC50: 36.6 µM

## O=C(NCc1ccco1)c1ccccc1NS(=O)(=O)c1ccc2c(c1)OCCO2 [2-(2,3-dihydro-1,4-benzodioxin-6-ylsulfonylamino)-N-(2-furanylmethyl)benzamide]
  IC50: 42.4 µM

## C/C(C=Nn1cnnc1)=C\c1ccco1 [(E)-3-(2-furanyl)-2-methyl-N-(1,2,4-triazol-4-yl)-2-propen-1-imine]
[1]
  IC50: 125 µM

## Cc1c(C(=O)NCC2CCCO2)sc2nc(-c3ccccc3)cn12 (stereo not drawn) [3-methyl-6-phenyl-N-(tetrahydrofurfuryl)imidazo[2,1-b]thiazole-2-carboxamide]
  IC50: > 10000 µM

## CCOC(=O)CC(=O)CSc1ccc2nnc(-c3ccc(C)cc3)n2n1 [3-keto-4-[[3-(p-tolyl)-[1,2,4]triazolo[4,3-b]pyridazin-6-yl]thio]butyric acid ethyl ester]
  IC50: 287 µM

## O=c1c2ccccc2sn1-c1ccc(S(=O)(=O)N2CCCCC2)cc1 [2-(4-piperidin-1-ylsulfonylphenyl)-1,2-benzothiazol-3-one]
  IC50: 2.15 µM

## CN(C)S(=O)(=O)c1cccc(C(=O)C2=C3SC=C(c4ccccc4)N3CC2)c1 [N,N-dimethyl-3-[(3-phenyl-5,6-dihydropyrrolo[2,1-b][1,3]thiazol-7-yl)carbonyl]benzenesulfonamide]
  IC50: > 10000 µM

## CCOc1ccc(C(=O)O)cc1OC [4-ethoxy-3-methoxy-benzoic acid]
  IC50: > 10000 µM

## CCOc1ccc(N(CC(=O)NC2CCCC(C)C2C)S(=O)(=O)c2c(C)noc2C)cc1 (stereo not drawn) [MLS000117395]
  IC50: > 10000 µM

## CCN(CC)C(=O)c1sc2[nH]c(-c3ccccn3)nc(=O)c2c1C
  IC50: 30 µM

## COc1cc(CNc2ccc(N3CCOCC3)c(C(=O)O)c2)ccc1OCC(N)=O [5-[[4-(2-amino-2-keto-ethoxy)-3-methoxy-benzyl]amino]-2-morpholino-benzoic acid]
  IC50: 65.5 µM

## Cc1ccc(NC(=O)N(CCCN2CCOCC2)Cc2cc3cc4c(cc3[nH]c2=O)OCO4)cc1 [3-(4-methylphenyl)-1-(3-morpholin-4-ylpropyl)-1-[(6-oxidanylidene-5H-[1,3]dioxolo[4,5-g]quinolin-7-yl)methyl]urea]
  IC50: 45.6 µM

## Cc1ccc(S(=O)(=O)c2cc3c(=O)n4ccccc4nc3n(CC3CCCO3)c2=N)cc1C (stereo not drawn) [2-azanylidene-3-(3,4-dimethylphenyl)sulfonyl-1-(oxolan-2-ylmethyl)dipyrido[1,2-d:3',4'-f]pyrimidin-5-one]
  IC50: 43.6 µM

## CCN(CC)c1ccc(C=Nn2c(=S)[nH]nc(C)c2=O)cc1 [4-[[4-(diethylamino)phenyl]methylideneamino]-6-methyl-3-sulfanylidene-2H-1,2,4-triazin-5-one]
[1]
  IC50: 20.2 µM

## COc1cccc(C(=O)OCn2nnc3ccccc3c2=O)c1 [(4-oxidanylidene-1,2,3-benzotriazin-3-yl)methyl 3-methoxybenzoate]
  IC50: > 10000 µM

## COc1ccc(C(O)Cn2c(=N)n(CCCN(C)C)c3ccccc32)cc1 (stereo not drawn) [2-[2-azanylidene-3-[3-(dimethylamino)propyl]benzimidazol-1-yl]-1-(4-methoxyphenyl)ethanol;hydrochloride]
  IC50: > 10000 µM

## NC(=O)c1ccsc1NC(=O)c1nc(-c2ccccc2)n(-c2ccccc2)n1 [MLS000054020]
  IC50: 55.9 µM

## COc1ccc2c(c1)-c1ccccc1S(=O)(=O)N2C(C)=O [1-(5,5-diketo-9-methoxy-benzo[c][1,2]benzothiazin-6-yl)ethanone]
  IC50: 80.2 µM

## COc1ccc(-c2cc(C(F)(F)F)nc(SCCC(=O)N3CCN4CCCC4C3)n2)cc1 (stereo not drawn) [1-(3,4,6,7,8,8a-hexahydro-1H-pyrrolo[1,2-a]pyrazin-2-yl)-3-[4-(4-methoxyphenyl)-6-(trifluoromethyl)pyrimidin-2-yl]sulfanyl-propan-1-one]
  IC50: 376 µM

## Cn1c(SCC(=O)N2CCOCC2)nnc1-c1ccc(NC(=O)c2ccccc2F)cc1 [2-fluoranyl-N-[4-[4-methyl-5-(2-morpholin-4-yl-2-oxidanylidene-ethyl)sulfanyl-1,2,4-triazol-3-yl]phenyl]benzamide]
  IC50: > 10000 µM

## COCCCn1c(=S)[nH]c2ccc(N3CCOCC3)cc2c1=O [MLS000095418]
  IC50: 26.7 µM

## Cc1csc2ncc(C(=O)Nc3ccccc3Cl)c(=O)n12 [MLS000102002]
[1]
  IC50: 47.4 µM

## O=c1c2ccccc2[se]n1-c1ccccc1 [2-Phenyl-benzo[d]isoselenazol-3-one]
[1]
  IC50: 0.513 µM

## CCCc1nnc(NC(=O)CN2CCOCC2)s1 [2-(4-morpholinyl)-N-(5-propyl-1,3,4-thiadiazol-2-yl)acetamide;hydrochloride]
  IC50: > 10000 µM

## Cc1ccccc1CN1CCN(S(=O)(=O)c2ccc(F)cc2)CC1 [1-(4-fluorophenyl)sulfonyl-4-(2-methylbenzyl)piperazine]
  IC50: > 10000 µM

## O=C(COc1cnc2ccccc2n1)NCCC1=CCCCC1 [MLS000056304]
  IC50: 188 µM

## Clc1cccc(-c2ccc(C=Nn3cnnc3)o2)c1 [1-[5-(3-chlorophenyl)-2-furanyl]-N-(1,2,4-triazol-4-yl)methanimine]
[1]
  IC50: 101 µM

## Cc1cc(C)c(S(=O)(=O)NCc2cn3c(C)csc3n2)cc1C [2,4,5-trimethyl-N-[(3-methyl-6-imidazo[2,1-b]thiazolyl)methyl]benzenesulfonamide]
  IC50: > 10000 µM

## Cc1c(C(=O)OCC(C)(C)CN(C)C)oc2ccccc12 [3-Methyl-benzofuran-2-carboxylic acid 3-dimethylamino-2,2-dimethyl-propyl ester]
  IC50: > 10000 µM

## COC(=O)c1cc2occc2n1CC(=O)Nc1ccc(OC)c(OC)c1OC [4-[2-keto-2-(2,3,4-trimethoxyanilino)ethyl]furo[3,2-b]pyrrole-5-carboxylic acid methyl ester]
  IC50: > 10000 µM
